Test results from patent publication US20160303114A1 (Laguna Pharmaceuticals, Inc., priority 2013, published 2016).

What was measured:
[1] = Example 4: plasma concentrations of vanoxerine in patients after an oral vanoxerine HCL tablet; type: in vivo, human; details: outlier patient, CYP2D6 slow metabolizer
From the text: The results identified high levels of variability between patients and a single outlier, who was particularly profiled to determine the possible cause of the high plasma concentration levels.
Accordingly, the individual patient could have received administration of ½ to ¼ the dose of other patients for the same effective plasma concentration as the majority of the patients in the study.

[2] = healthy subjects, higher doses of vanoxerine; cited from earlier work
[3] = Example 5: concentrations of vanoxerine and its metabolites in patients after a 300 mg dose of vanoxerine; type: in vivo, human; details: low concentration group, 300 mg vanoxerine
Method: Each patient gave samples before administration of their dose, and then again at nine further time points, 30 minutes after administration, 1, 2, 3, 4, 6, 8, 12, and 24 hours post administration.

[4] = Preliminary studies of daily use of vanoxerine over 7, 10 and 14 days; type: in vivo; details: daily use over 7, 10, and 14 days, 75, 100, 125, and 150 mg a day
From the text: However, control and prevention of events of cardiac arrhythmia are important to these patients to prevent future recurrences and the deleterious effects and morbidity.

plasma concentration [1]: unusually high plasma concentration | plasma levels, highest at any time point [3]: ~40 ng/mL
SMILES: Fc1ccc(C(OCCN2CCN(CCCc3ccccc3)CC2)c2ccc(F)cc2)cc1 [Vanoxerine, 1-[2-[bis(4-fluorophenyl)methoxy]ethyl]-4-(3-phenylpropyl)piperazine]
effects seen at higher doses [2]: concentration difficulties, increase systolic blood pressure, asthenia, and a feeling of drug influence | effects of daily use [4]: increased heart rate and systolic blood pressure
